Measurements reported in patent US20260200903A1, “PHARMACEUTICAL COMPOSITION FOR AMELIORATING MALIGNANT DISEASES” (KINKI UNIVERSITY, priority 2020, published 2026).

Experiments:
IL-6 = IL-6 secretion in KMS-28BM cells, Luminex; type: cell-based, human; details: KMS-28BM culture supernatant after 10 days; compounds at 0.005-50 μM; control 143 μg/mL
Description: The inhibitory effect of each compound on IL-6 secretion was examined using Luminex in KMS-28BM cells.
As a control, compounds untreated KMS-28BM cells were seeded in 75 cm^2 flasks and incubated for 10 days at 37° C. and 5% CO2. KMS-28BM cells were seeded into 75 cm^2 flasks and pre-cultured for 4 h. After incubation, KMS-28BM cells were treated with […], 0.05 μM M9, 0.1 μM yk-7, 0.1 μM yk-8-3, 50 μM yk-8-1, 0.5 μM M11, […], 0.005 μM M14, 0.005 μM M15, 0.005 μM M16, 0.5 μM M18, and 0.5 μM M19 at final concentrations, and incubated for 10 days at 37° C. and 5% CO2. After 10 days of incubation, the culture supernatant was collected and the secretion of IL-6, a bone destruction-related factor and a growth-promoting factor, was measured by Luminex. The human Magnetic Luminex Assay (R&D) was used for this measurement.

MIP-1α = MIP-1α secretion in L363 cells, Luminex; type: cell-based, human; details: L363 culture supernatant after 10 days; compounds at 0.005-50 μM; control 266 μg/mL
Description: The inhibitory effect of each compound on MIP-1α secretion was examined using Luminex in L363 cells.
As a control, compounds untreated L363 cells were seeded in 75 cm^2 flasks and incubated for 10 days at 37° C. and 5% CO2. L363 cells were seeded into 75 cm^2 flasks and pre-cultured for 4 h. After incubation, L363 cells were treated with 0.1 μM M7, 0.05 μM M9, 0.1 μM yk-7, 0.1 μM yk-8-3, 50 μM yk-8-1, 0.1 μM M11, 0.01 μM M12, 0.005 μM M14, 0.005 μM M15, 0.005 μM M16, 1 μM M18, and 1 μM M19 at final concentrations, and incubated for 10 days at 37° C. and 5% CO2. After 10 days of incubation, the culture supernatant was collected and the secretion of MIP-la, a bone destruction-related factor and a growth-promoting factor, was measured by Luminex. The human Magnetic Luminex Assay (R&D) was used for this measurement.

L363 cells = test: Tumor growth inhibition in mice transplanted with L363 cells; type: in vivo, NOD/ShiJic-scidJcl mice; details: oral 100 mg/kg daily, day 24, vs control group (P<0.01)
Description: L363 cells were transplanted into NOD/ShiJic-scidJcl mice, and the tumor growth inhibitory effect of oral administration of M9 was examined. As a result, a remarkable tumor growth inhibitory effect was observed.
L363 cells were transplanted into NOD/ShiJic-scidJcl mice, and M9 was orally administered to the mice at 100 mg/kg daily on day 0 when the average tumor volume exceeded 100 mm^3, and tumor volume was measured on day 24.
The group that was only implanted with L363 cells is called the target group and the group that was treated with M9 is called the M9-treated group. Each group consisted of 5 animals.
(§1) Referring to the figure, the horizontal axis indicates drug treatment, and the vertical axis indicates tumor volume (percent of the control group).
White bars indicate the control group (labeled “Control”). Black bars indicate the M9 treatment group (labeled “100 mg/kg M9”). Those with significant differences (P<0.01) from the control group are marked with an asterisk (*).

Raji cells = test: Tumor growth inhibition in mice transplanted with Raji cells; type: in vivo, NOD/ShiJic-scidJcl mice; details: oral 50 mg/kg daily, day 21, vs control group (P<0.01)
Description: Raji cells were transplanted into NOD/ShiJic-scidJcl mice, and the tumor growth inhibitory effect of oral administration of M9 and M14 was examined. As a result, a remarkable tumor growth inhibitory effect was observed.
Raji cells were transplanted into NOD/ShiJic-scidJcl mice, and the mice were orally administered M9 at 50 mg/kg and M14 at 50 mg/kg daily on day 0 when the average tumor volume exceeded 100 mm^3, and the tumor volume was measured on day 21.
The group that was only transplanted with Raji cells is called the control group, the group that was treated with M9 is called the M9-treated group, and the group that was treated with M14 is called the M14-treated group. Each group consisted of 5 animals.
as §1
White bars indicate the control group (labeled “Control”). Black bars indicate the M9 treatment group (labeled “50 mg/kg M9”) and vertical bars indicate the M14 treatment group (labeled “50 mg/kg M14”).

SMILES	IL-6 secretion (IL-6) [µg/mL]	MIP-1α secretion (MIP-1α) [µg/mL]	tumor growth (tumor volume, percent of the control group) (L363 cells)	tumor growth (tumor volume, percent of the control group) (Raji cells)
CCCC(=O)OC[C@H]1O[C@@H](c2c(OC(=O)CCC)cc3oc4cc(OC(=O)CCC)c(OC(=O)CCC)cc4c(=O)c3c2OC(=O)CCC)[C@H](OC(=O)CCC)[C@@H](OC(=O)CCC)[C@@H]1OC(=O)CCC [Compound M11, 1,3,2′,3′,4′,6,6′,7-octa-O-butyrylmangiferin]	12	6	–	–
CCC(=O)OC[C@H]1O[C@@H](c2c(O)cc3oc4cc(O)c(O)cc4c(=O)c3c2O)[C@H](OC(=O)CC)[C@@H](OC(=O)CC)[C@@H]1OC(=O)CC [Compound M9, 2′,3′,4′,6′-tetra-O-propionylmangiferin]	–	–	significant inhibition of tumor growth	significant inhibition of tumor growth
CCCC(=O)OC[C@H]1O[C@@H](c2c(O)cc3oc4cc(O)c(O)cc4c(=O)c3c2O)[C@H](OC(=O)CCC)[C@@H](OC(=O)CCC)[C@@H]1OC(=O)CCC [Compound M14, 2′,3′,4′,6′-tetra-O-butyrylmangiferin]	–	–	–	significant inhibition of tumor growth
CCCCC(=O)OC[C@H]1O[C@@H](c2c(OC(=O)CCCC)cc3oc4cc(OC(=O)CCCC)c(OC(=O)CCCC)cc4c(=O)c3c2OC(=O)CCCC)[C@H](OC(=O)CCCC)[C@@H](OC(=O)CCCC)[C@@H]1OC(=O)CCCC [yk-8-1, 1,3,2′,3′,4′,6,6′,7-octa-O-valerylmangiferin]	84	179	–	–
